Results: patent US20180092883A1, “PHOSPHATASE INHIBITORS FOR TREATING OCULAR DISEASES” (Aerpio Therapeutics, Inc., priority 2010, published 2018)

Test system: Rhodopsin/VEGF transgenic mice
Assay: Retinal/subretinal neovascularization in rho/VEGF transgenic mice (Study 3; GSA lectin, image analysis)
Assay type: in vivo, mouse
Settings: s.c. b.i.d. for 7 days, 3 mg/kg/dose, vs vehicle
Description: Thirty (30) Rhodopsin/VEGF transgenic mice having constitutive expression of VEGF in their retinal neurons were divided into three equal groups. At day 14 post natal each group received subcutaneous injections as follows: Group 1 received 10 mg/kg/injection (high dose) of a compound from Table XXI; Group 2 received 3 mg/kg/injection (low dose) of a compound from Table XXI; and Group 3 received injections of vehicle. Each animal received two injections per day for 7 days.
At P21, mice were sacrificed; eyes were harvested and fixed in 10% PBS-buffered formalin for 2 hours at room temperature. […] After 3 washes with PBST, retinas were mounted and imaged by fluorescence microscopy. Areas of retinal neovascularization were assessed using image analysis software (ImagePro Plus 5). […]
Transgenic mice in which the rhodopsin promoter drives expression of VEGF in photoreceptors (rho/VEGF mice) have onset of VEGF expression at P7 and starting at P10 develop sprouts of neovascularization from the deep capillary bed of the retina that grow through the photoreceptor layer and form an extensive network of new vessels in the subretinal space. […] FITC conjugated GSA was used to stain the retinas at room temperature for 2 hours and then the retinas were flat mounted with the photoreceptor side up and examined by fluorescence microscopy. […]

SMILES: COC(=O)N[C@@H](Cc1ccccc1)C(=O)N[C@@H](Cc1ccc(NS(=O)(=O)O)cc1)c1csc(-c2cccs2)n1 [D91]
- neovascular tufts / new blood vessels in the retina at P21 (micrograph FIG. 3B): marked reduction of neovascular tufts
